This is an account of results in ChEMBL document CHEMBL4330173, “TRPV1 Modulators for the Treatment of Pain and Inflammation” (ACS Med Chem Lett, 2019).

Test [1] has as its target T1, Transient receptor potential cation channel subfamily V member 1 (Rattus norvegicus, UniProt O35433). Put plainly: Agonist activity at rat TRPV1 expressed in human SH-SY5Y cells assessed as intracellular calcium accumulation by Fluo-4 NW dye based fluorescence assay. The class given is cell-based. On the technique in general: Calcium assays in cells follow changes in intracellular calcium, usually with a dye or a luminescent sensor.

In test [2] the target is T1, Transient receptor potential cation channel subfamily V member 1. Put plainly: Antagonist activity at rat TRPV1 expressed in human SH-SY5Y cells assessed as reduction in capsaicin-induced intracellular calcium accumulation preincubated with cells followed by capsaicin addition by Fluo-4 NW dye based fluorescence assay. The class given is cell-based.

T1 sequence (O35433 whole entry): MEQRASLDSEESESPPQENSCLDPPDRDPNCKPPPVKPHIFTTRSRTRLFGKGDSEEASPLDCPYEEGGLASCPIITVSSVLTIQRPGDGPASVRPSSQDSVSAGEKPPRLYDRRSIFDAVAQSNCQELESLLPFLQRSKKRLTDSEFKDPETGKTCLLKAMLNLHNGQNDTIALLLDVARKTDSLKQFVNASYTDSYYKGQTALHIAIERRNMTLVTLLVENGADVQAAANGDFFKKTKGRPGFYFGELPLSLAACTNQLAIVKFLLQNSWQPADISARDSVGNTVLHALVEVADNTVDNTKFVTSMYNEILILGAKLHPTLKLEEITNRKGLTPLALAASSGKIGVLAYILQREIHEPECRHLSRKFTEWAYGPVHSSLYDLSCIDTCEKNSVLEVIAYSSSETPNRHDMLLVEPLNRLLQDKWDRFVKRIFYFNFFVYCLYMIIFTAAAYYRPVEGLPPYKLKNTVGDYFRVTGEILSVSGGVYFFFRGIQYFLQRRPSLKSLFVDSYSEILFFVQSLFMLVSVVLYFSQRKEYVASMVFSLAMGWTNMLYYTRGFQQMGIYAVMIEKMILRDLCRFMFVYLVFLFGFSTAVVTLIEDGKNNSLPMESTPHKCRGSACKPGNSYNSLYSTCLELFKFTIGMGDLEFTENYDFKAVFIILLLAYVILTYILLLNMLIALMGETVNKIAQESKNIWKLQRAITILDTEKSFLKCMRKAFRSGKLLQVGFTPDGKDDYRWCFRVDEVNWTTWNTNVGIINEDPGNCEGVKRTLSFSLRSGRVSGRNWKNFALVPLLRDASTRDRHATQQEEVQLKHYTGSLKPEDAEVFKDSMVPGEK

On to `CC(C)=CCC/C(C)=C/CC/C(C)=C/CC/C=C(\C)CC/C=C(\C)CCC(=O)OCC(=O)NCc1ccc(O)c(O)c1`, for which the EC50 in test [1] was 0.015 µM.

With `COc1cc(CNC(=O)COC(=O)/C=C(\C)CCC=C(C)C)c(I)cc1O`, the half-inhibitory concentration (IC50) in test [2] was 0.32 µM.

For orientation: EC50 means the concentration at which the effect is half-maximal. Broadly, the IC50 is the midpoint of a concentration-inhibition curve.
